## Nc1ccc(CC(=O)Nc2ccc(Nc3cc(-c4cccc5c4oc4ccccc45)ncn3)cc2)cc1.O=C(O)C(F)(F)F
  melting point: 125 to 130 °C

## Nc1cccc(C(=O)Nc2cccc(Nc3cc(-c4cccc5c4oc4ccccc45)ncn3)c2)c1.O=C(O)C(F)(F)F
  melting point: 150 to 153 °C

## CN(C)c1ccc(C(=O)Nc2ccc(Nc3cc(-c4cccc5c4oc4ccccc45)ncn3)cc2)cc1 [Compound 2, N-[4-(6-Dibenzofuran-4-yl-pyrimidin-4-ylamino)-phenyl]-4-dimethylamino-benzamide]
  melting point: 285 to 300 °C

## CN1CCN(Cc2ccc(C(=O)Nc3ccc(Nc4cc(-c5cccc6c5oc5ccccc56)ncn4)cc3)cc2)CC1 [Compound 3, N-[4-(6-Dibenzofuran-4-yl-pyrimidin-4-ylamino)-phenyl]-4-(4-methyl-piperazin-1-ylmethyl)-benzamide]
  melting point: 270 to 274 °C

## CN(C)c1ccccc1C(=O)Nc1ccc(Nc2cc(-c3cccc4c3oc3ccccc34)ncn2)cc1 [Compound 5, N-[4-(6-Dibenzofuran-4-yl-pyrimidin-4-ylamino)-phenyl]-2-dimethylamino-benzamide]
  melting point: 246 to 249 °C

## O=C(Nc1ccc(Nc2cc(-c3cccc4c3oc3ccccc34)ncn2)cc1)c1ccccc1 [Compound 7, N-[4-(6-Dibenzofuran-4-yl-pyrimidin-4-ylamino)-phenyl]-benzamide]
  melting point: 323 to 325 °C

## CC(C)(C)c1ccc(C(=O)Nc2ccc(Nc3cc(-c4cccc5c4oc4ccccc45)ncn3)cc2)cc1 [Compound 8, 4-tert-Butyl-N-[4-(6-dibenzofuran-4-yl-pyrimidin-4-ylamino)-phenyl]-benzamide]
  melting point: 261 to 263 °C

## CN(C)c1cccc(C(=O)Nc2ccc(Nc3cc(-c4cccc5c4oc4ccccc45)ncn3)cc2)c1 [Compound 10, N-[4-(6-Dibenzofuran-4-yl-pyrimidin-4-ylamino)-phenyl]-3-dimethylamino-benzamide]
  melting point: 225 to 232 °C

## O=C(Nc1ccc(Nc2cc(-c3cccc4c3oc3ccccc34)ncn2)cc1)c1ccc(CN2CCOCC2)cc1 [Compound 13, N-[4-(6-Dibenzofuran-4-yl-pyrimidin-4-ylamino)-phenyl]-4-morpholin-4-ylmethyl-benzamide]
  melting point: > 250 °C

## CN1CCN(c2ccc(C(=O)Nc3ccc(Nc4cc(-c5cccc6c5oc5ccccc56)ncn4)cc3)cc2)CC1 [Compound 14, N-[4-(6-Dibenzofuran-4-yl-pyrimidin-4-ylamino)-phenyl]-4-(4-methyl-piperazin-1-yl)-benzamide]
  melting point: 304 to 319 °C

## O=C(Nc1ccc(Nc2cc(-c3cccc4c3oc3ccccc34)ncn2)cc1)c1ccc(N2CCOCC2)nc1 [Compound 15, N-[4-(6-Dibenzofuran-4-yl-pyrimidin-4-ylamino)-phenyl]-6-morpholin-4-yl-nicotinamide]
  melting point: 310 to 312 °C

## COCCC(CCOC)c1cccc(C(=O)Nc2ccc(Nc3cc(-c4cccc5c4oc4ccccc45)ncn3)cc2)c1 [Compound 16, N-[4-(6-Dibenzofuran-4-yl-pyrimidin-4-ylamino)-phenyl]-3-[3-methoxy-1-(2-methoxyethyl)-propyl]-benzamide]
  melting point: 186 to 188 °C

## CC(C)(C)OC(=O)NCc1ccc(C(=O)Nc2ccc(Nc3cc(-c4cccc5c4oc4ccccc45)ncn3)cc2)cc1 [Compound 17, tert-Butyl N-{4-[4-(6-dibenzofuran-4-yl-pyrimidin-4-ylamino)-phenylcarbamoyl]-benzyl}-carbamate]
  melting point: 311 to 321 °C

## CC(C)(C)OC(=O)Nc1ccccc1C(=O)Nc1ccc(Nc2cc(-c3cccc4c3oc3ccccc34)ncn2)cc1 [Compound 18, tert-Butyl N-{2-[4-(6-Dibenzofuran-4-yl-pyrimidin-4-ylamino)-phenylcarbamoyl]-phenyl}-carbamate]
  melting point: > 340 °C

## CC(C)(C)OC(=O)N1CCCC(c2ccc(C(=O)Nc3ccc(Nc4cc(-c5cccc6c5oc5ccccc56)ncn4)cc3)cc2)C1 (stereo not shown) [Compound 20, tert-Butyl 3-{4-[4-(6-Dibenzofuran-4-yl-pyrimidin-4-ylamino)-phenylcarbamoyl]-phenyl}-piperidin-1-carboxylate]
  melting point: 259 to 261 °C

## CC(C)(C)OC(=O)Nc1ccc(CC(=O)Nc2ccc(Nc3cc(-c4cccc5c4oc4ccccc45)ncn3)cc2)cc1 [Compound 21, tert-Butyl N-(4-{[4-(6-dibenzofuran-4-yl-pyrimidin-4-ylamino)-phenylcarbamoyl]-methyl}-phenyl)-carbamate]
  melting point: > 320 °C

## CC(C)(C)OC(=O)NCc1cccc(C(=O)Nc2ccc(Nc3cc(-c4cccc5c4oc4ccccc45)ncn3)cc2)c1 [Compound 22, tert-Butyl N-{3-[4-(6-Dibenzofuran-4-yl-pyrimidin-4-ylamino)-phenylcarbamoyl]-benzyl}-carbamate]
  melting point: 237 °C

## CC(C)(C)OC(=O)NCCc1ccc(C(=O)Nc2ccc(Nc3cc(-c4cccc5c4oc4ccccc45)ncn3)cc2)cc1 [Compound 23, tert-Butyl N-(2-{4-[4-(6-Dibenzofurane-4-yl-pyrimidin-4-ylamino)-phenylcarbamoyl]phenyl}-ethyl)-carbamate]
  melting point: > 250 °C

## CC(C)(C)OC(=O)NCc1ccnc(C(=O)Nc2ccc(Nc3cc(-c4cccc5c4oc4ccccc45)ncn3)cc2)c1 [Compound 24, tert-Butyl N-{2-[4-(6-Dibenzofuran-4-yl-pyrimidin-4-ylamino)-phenylcarbamoyl]-pyridin-4-ylmethyl}-carbamate]
  melting point: 245 °C

## CC(C)(C)OC(=O)NCc1ccc(C(=O)Nc2cccc(Nc3cc(-c4cccc5c4oc4ccccc45)ncn3)c2)cc1 [Compound 25, tert-Butyl {4-[3-(6-dibenzofuran-4-yl-pyrimidin-4-ylamino)-phenylcarbamoyl]-benzyl}-carbamate]
  melting point: 233 to 236 °C

## CC(C)(C)OC(=O)NCCc1ccc(C(=O)Nc2cccc(Nc3cc(-c4cccc5c4oc4ccccc45)ncn3)c2)cc1 [Compound 26, tert-Butyl N-(2-{4-[3-(6-dibenzofuran-4-yl-pyrimidin-4-ylamino)-phenylcarbamoyl]-phenyl}-ethyl)-carbamate]
  melting point: 239 to 241 °C

## CC(C)(C)OC(=O)Nc1cccc(C(=O)Nc2cccc(Nc3cc(-c4cccc5c4oc4ccccc45)ncn3)c2)c1 [Compound 28, tert-Butyl {3-[3-(6-dibenzofuran-4-yl-pyrimidin-4-ylamino)-phenylcarbamoyl]-phenyl}-carbamate]
  melting point: 160 to 163 °C

## CC(C)(C)OC(=O)NCc1cccc(C(=O)Nc2cccc(Nc3cc(-c4cccc5c4oc4ccccc45)ncn3)c2)c1 [Compound 29, tert-Butyl N-{3-[3-(6-Dibenzofuran-4-yl-pyrimidin-4-ylamino)-phenylcarbamoyl]-benzyl}-carbamate]
  melting point: 216 to 219 °C

## CC(C)(C)OC(=O)Nc1ccc(C(=O)Nc2cccc(Nc3cc(-c4cccc5c4oc4ccccc45)ncn3)c2)cc1 [Compound 30, tert-Butyl N-{4-[3-(6-Dibenzofuran-4-yl-pyrimidin-4-ylamino)-phenylcarbamoyl]-phenyl}-carbamate]
  melting point: 214 °C

## CN(C)c1cccc(C(=O)Nc2cccc(Nc3cc(-c4cccc5c4oc4ccccc45)ncn3)c2)c1 [Compound 48, N-[3-(6-Dibenzofuran-4-yl-pyrimidin-4-ylamino)-phenyl]-3-dimethylamino-benzamide]
  melting point: 245 to 251 °C

Source: US7879853B2, “4,6-disubstituted pyrimidines and their use as protein kinase inhibitors” (Bayer Schering Pharma AG, priority 2004, dated 2011)
